These compounds were tested against phosphodiesterase 4 (assay: Phosphodiesterase 4 inhibition, SPA with enzyme preparation from human PMNL). Conditions: cytosolic PDE4 from human PMNL, 0.5 μM [3H]-cAMP, 37° C., 30 minutes; read-out: PDE 4 inhibition IC50.
Assay type: biochemical
Method: PDE4 activity is determined using enzyme preparations from human polymorphonuclear […] (PMNL). Human blood (buffy coats) was anticoagulated with citrate. A centrifugation at 700×g at room temperature (RT) for 20 minutes separates the platelet-rich plasma in the supernatant from the erythrocytes and leukocytes. The PMNLs for the PDE4 determination are isolated by a subsequent dextran sedimentation and in gradient centrifugation with Ficoll-Paque. After the cells have been washed twice, the erythrocytes which are still present are lysed by adding 10 ml of hypotonic buffer (155 mM NH4Cl, 10 mM NaHCO3, 0.1 mM EDTA, pH=7.4) at 4° C. within 6 minutes. The still intact PMNLs are then washed twice with PBS and lysed by ultrasound. The supernatant from a centrifugation at 4° C. and 48000×g for one hour contains the cytosolic fraction of PDE 4 and is employed for the PDE4 measurements.
The phosphodiesterase activity is assayed using a modified Amersham Pharmacia Biotech method, an SPA (scintillation proximity assay).
The reaction mixtures contain buffer (50 mM Tris-HCl (pH 7.4), 5 mM MgCl2, 100 μM cGMP), the inhibitors in variable concentrations and the appropriate enzyme preparation. The reaction is started by adding the substrate, 0.5 μM [^3H]-cAMP. The final volume is 100 μl. Test substances are made up as stock solutions in DMSO. The DMSO concentration in the reaction mixture is 1% v/v. The PDE activity is unaffected at this DMSO concentration. After the reaction has been started by adding substrate, the samples are incubated at 37° C. for 30 minutes. The reaction is stopped by adding a defined amount of SPA beads, and the samples are counted after one hour in a Beta counter. The nonspecific enzymic activity (the blank) is determined in the presence of 100 μM rolipram and subtracted from the test results. The incubation mixtures for the PDE4 assay contain 100 μM cGMP in order to inhibit any contamination by PDE 3.

Row | SMILES | IC50
1 | O=C(Nc1c(Cl)cccc1Cl)C(=O)c1cn(Cc2ccccc2Cl)c2c1ccc[n+]2[O-] [Compound 2, N-(2,6-Dichlorophenyl)-[1-(2-chlorobenzyl)-7-oxo-7-azaindol-3-yl]glyoxylamide] | 0.048 µM
2 | O=C(Nc1c(Cl)cncc1Cl)C(=O)c1cn(Cc2ccc(F)cc2)c2c1ccc[n+]2[O-] [Compound 1, N-(3,5-Dichloropyridin-4-yl)-[1-(4-fluorobenzyl)-7-oxo-7-azaindol-3-yl]glyoxylamide] | 0.052 µM
3 | O=C(Nc1c(Cl)c[n+]([O-])cc1Cl)C(=O)c1cn(Cc2ccc(F)cc2)c2c1ccc[n+]2[O-] [Compound 4, N-(3,5-Dichloro-1-oxopyridin-4-yl)-[1-(4-fluorobenzyl)-7-oxo-7-azaindol-3-yl]glyoxylamide] | 0.751 µM
4 | O=C(Nc1c(Cl)c[n+]([O-])cc1Cl)C(=O)c1cn(Cc2ccc(F)cc2)c2ncccc12 [Compound 3, N-(3,5-Dichloro-1-oxopyridin-4-yl)-[1-(4-fluorobenzyl)-7-azaindol-3-yl]glyoxylamide] | 0.008 µM

Source: patent US7211583B2, “7-azaindoles and the use thereof as therapeutic agents” (Elbion AG, priority 2003, dated 2007)
